# Reference: patent US20230348394A1, “COMPOSITIONS AND METHODS FOR TREATING MUSCULAR DYSTROPHIES” (The Regents of the University of California, priority 2020, published 2023)
# How the values were obtained:
# [1] = test system: membrane-associated utrophin; test: Cell surface protein biotinylation and utrophin immunoblot, mdx myotubes; assay type: cell-based, murine; conditions: 5 μM, 48 hours
# Experimental: Myotubes treated for 48 hrs were lysed using RIPA buffer (Thermo Fisher Scientific) containing Halt Protease Inhibitor Cocktail (Thermo Fisher Scientific). Cell lysates in RIPA buffer were rocked for 1 hr at 4° C. and centrifuged at 1,000 RPM for 30 mins at 4° C. The supernatant was collected, quantified for protein concentration using the DC protein assay (Bio-Rad), and normalized to 2 mg/ml in water and Laemmli sample buffer with a final concentration of 10% glycerol (Sigma-Aldrich), 5% beta-mercaptoethanol (Sigma-Aldrich), 3% sodium dodecyl sulfate (Sigma-Aldrich), and 0.05% bromophenol blue (Sigma-Aldrich). For SDS-PAGE, samples were heated to 95° C. for 2 mins before loading 40 μg onto 4-12% tris-glycine or bis-tris polyacrylamide gels (Novex), electrophoresed for 2 hrs at 100 volts at RT, and transferred to a nitrocellulose membrane for 2 hrs at 100 volts at 4° C. Ponceau S staining was performed to visualize protein loading and verify protein transfer. […] Autoradiography films were developed using a SRX-101A tabletop processor (Konica Minolta), scanned to a digital file, and analyzed by densitometry of bands using ImageJ version 1.51 s. […]
# SSPN mRNA = test: siRNA-mediated knockdown of SSPN in mdx myotubes, SSPN mRNA; assay type: cell-based, murine
# Experimental: RNA from myotubes treated for 48 hrs was extracted from cells using Trizol-based (Thermo Fisher Scientific) phase separation, Chomczynski et al., Biotechniques. 1993; 15(3):532-4, 6-7. RNA concentrations were determined using a NanoDrop 1000 (Thermo Fisher Scientific) and 750 ng of RNA in a 20 Id reaction was reverse transcribed using iScript cDNA synthesis (Bio-Rad) with the following cycling conditions: 25° C. for 5 mins, 42° C. for 30 mins, 85° C. for 5 mins. For mouse qPCR, SsoFast EvaGreen Supermix (Bio-Rad), 400 nM of each optimized forward and reverse primer (SSPN F: 5′ […] 3′, SSPN R: 5′ […] 3′, BACT F: 5′ […] 3′, BACT R: 5′ […] 3′), and cDNA corresponding to 37.5 ng RNA were used to amplify cDNA measured by QuantStudio 5 Real-Time PCR System (Thermo Fisher Scientific) with the following reaction conditions: 55° C. for 2 mins, 95° C. for 2 mins, 40 cycles of 95° C. for 10 seconds and 62° C. for 30 seconds, and dissociation stage. For qPCR of human samples, TaqMan assays were used to quantify SSPN (assay ID Hs01025520m 1) and ACTB (assay ID Hs01060665_g1) with the following reaction conditions: 50° C. for 2 mins, 95° C. for 10 mins, 40 cycles of 95° C. for 15 seconds and 62° C. for 1 minute. […] Data was analyzed using the ddCT method and normalized to reference gene ACTB with vehicle-treated samples serving as the calibrator (relative expression of vehicle control=1). […]
smiles,measurement,setting,value
CCN(CC)c1ccc2cc(C(=O)Nc3ccc(C(=O)N4CCCCCC4)cc3)c(=O)oc2c1 [OT-9],increase in membrane-associated utrophin protein,[1],1.6 fold
same,SSPN mRNA levels under SSPN knockdown,SSPN mRNA; 24 nM SSPN siRNA plus OT-9,increased SSPN mRNA levels
same,increase of SSPN mRNA relative to the vehicle control,"SSPN mRNA; 24 nM scramble siRNA plus 1, 5 or 10 μM OT-9",up to 1.4 fold
